Results on four molecules are retold here after patent US20080233208A1, “USE OF ERIANIN IN PREPARING PHARMACEUTICAL FOR TREATING TUMORS” (The Jiang Cell Biomedical Research Co., Ltd., priority 2007, published 2008).

The conditions of series [1]: in vivo; cited from earlier work.
The next series relates to Lewis lung cancer. As to the kind of experiment: Tumor inhibition in murine model with Lewis lung cancer. The class given is in vivo, C57BL/6J mice. The following applies: for Tumor inhibiting rate / Tumor weight: 19th day after inoculation.
For series [2] the following is noted: mice bearing Lewis lung cancer, i.p. x 10 qd.
For series [3], the system named is human leukemia HL-60 cells. The following applies: cited from earlier work.
The next series has as its system tumor cell strain K256. The following applies: among dihydrobibenzyls and phenanthrenes in Dendrobium chrysotoxum; cited from earlier work.
Another series relates to liver cancer of mouse. The following applies: cited from earlier work.
For series [4] the following is noted: compared with 5FU; cited from earlier work.

Take `COc1ccc(/C=C\c2cc(OC)c(OC)c(OC)c2)cc1O` [Combretastatin A-4]: the LD50 – broadly, the dose expected to kill half of the subjects tested – in series [1] is 500 mg/kg.
Consider `N.N.[Cl][Pt][Cl]` [DDP, Cisplatin, reference compound], for which, in the series on Lewis lung cancer (1 mg/kg i.p. x 10 qd), the Tumor inhibiting rate was found to be 51.4% and the Tumor weight worked out at 1.26 ± 0.15.
Turning to `O=P1(N(CCCl)CCCl)NCCCO1` (stereo not shown) [CTX, Cyclophosphamide, reference compound], the “General condition of the mice (signs of toxicity)” value in series [2] is “signs of athrepsia, listlessness, and pilo-erection”. Further, in the series with Lewis lung cancer (30 mg/kg i.p. x 10 qd), the Tumor inhibiting rate is 63.2% and the Tumor weight worked out at 0.96 ± 0.13.
Take `COc1ccc(CCc2cc(OC)c(OC)c(OC)c2)cc1O` [Erianin]: the “inhibition of growth of HL-60 cells” value in series [3] was “significantly inhibited”. The “inhibitory effect on the growth of tumor cell strain K256” value in the series with tumor cell strain K256 was “most active”. The tumor inhibitory rate in the series with liver cancer of mouse is reported as 50.82%. Also, in series [4], the toxic side effect result was “far lower than 5FU”. For the same molecule, the Death result in series [2] is listed as “no death occurred”. Besides, in series [2], the “General condition of the mice (signs of toxicity)” value was “normal appetite, bright hair and free movements”. In addition, the Tumor inhibiting rate with Lewis lung cancer (50 mg/kg i.p. x 10 qd) turned out to be 38.8%; in the series with Lewis lung cancer (100 mg/kg i.p. x 10 qd) it was 46.0%; with Lewis lung cancer (200 mg/kg i.p. x 10 qd), 55.6%. Further, the Tumor weight with Lewis lung cancer (50 mg/kg i.p. x 10 qd) is listed as 1.59 ± 0.26; in the series on Lewis lung cancer (100 mg/kg i.p. x 10 qd), 1.40 ± 0.31; with Lewis lung cancer (200 mg/kg i.p. x 10 qd), 1.15 ± 0.14. The “Result assessment of tumor inhibiting effect” value in the series with Lewis lung cancer (mice bearing Lewis lung cancer, in words) is given as “quite effective”.
